The values that follow come from article PMC8550792, “Evolution of kinase polypharmacology across HSP90 drug discovery” (Cell Chemical Biology, 2021).

Common to all, as to assay: biochemical
Holding throughout (format): biochemical

The target of experiment [1] is T1, 382 unique human kinases (Homo sapiens, UniProt P42679).
T1 construct: purchased Reaction Biology (HotSpot contract assay)
T1 sequence (P42679 1-507): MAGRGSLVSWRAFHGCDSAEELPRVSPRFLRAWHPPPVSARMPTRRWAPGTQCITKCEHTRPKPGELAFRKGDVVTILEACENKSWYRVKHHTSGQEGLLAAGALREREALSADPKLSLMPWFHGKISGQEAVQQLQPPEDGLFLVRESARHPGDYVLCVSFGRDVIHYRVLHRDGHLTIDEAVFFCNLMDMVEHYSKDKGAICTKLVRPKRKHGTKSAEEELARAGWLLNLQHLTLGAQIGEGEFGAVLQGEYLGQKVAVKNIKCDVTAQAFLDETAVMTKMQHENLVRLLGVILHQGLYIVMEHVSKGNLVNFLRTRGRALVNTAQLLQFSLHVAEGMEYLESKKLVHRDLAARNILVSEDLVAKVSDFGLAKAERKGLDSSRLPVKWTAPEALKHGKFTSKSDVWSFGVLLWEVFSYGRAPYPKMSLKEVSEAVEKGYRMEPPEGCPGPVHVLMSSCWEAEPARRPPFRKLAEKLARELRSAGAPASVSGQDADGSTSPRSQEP
The following applies: kinase CTK/MATK, compound 10 uM; for remaining activity at 10 µM: read-out: % Enzyme Activity (relative to DMSO controls).

The target of experiment [2] is T2, 382 unique human kinases (Homo sapiens, UniProt Q13555).
T2 construct: purchased Reaction Biology (HotSpot contract assay)
Conditions: CAMK2g, 10 uM; for remaining activity at 10 µM: read-out: % Enzyme Activity (relative to DMSO controls).

Experiment [3] concerns the target T3, 382 unique human kinases (Homo sapiens, UniProt P16234, T674I).
T3 construct: purchased Reaction Biology (HotSpot contract assay)
The following applies: PDGFRa (T674I), [ATP] 20 µM, compound 10 uM; for remaining activity at 10 µM: read-out: % Enzyme Activity (relative to DMSO controls).

Experiment [4] has as its target T4, 382 unique human kinases (Homo sapiens, UniProt P29597).
T4 construct: purchased Reaction Biology (HotSpot contract assay)
Conditions: TYK2, [ATP] 15 µM, compound 10 uM; for remaining activity at 10 µM: read-out: % Enzyme Activity (relative to DMSO controls).

Experiment [5] concerns the target T5, 382 unique human kinases (Homo sapiens, UniProt P04629).
T5 construct: purchased Reaction Biology (HotSpot contract assay)
Conditions: TRKA, [ATP] 100 µM, compound 10 uM; for remaining activity at 10 µM: read-out: % Enzyme Activity (relative to DMSO controls).

The target of experiment [6] is T6, 382 unique human kinases (Homo sapiens, UniProt O15146).
T6 construct: purchased Reaction Biology (HotSpot contract assay)
T6 sequence (O15146 24-869): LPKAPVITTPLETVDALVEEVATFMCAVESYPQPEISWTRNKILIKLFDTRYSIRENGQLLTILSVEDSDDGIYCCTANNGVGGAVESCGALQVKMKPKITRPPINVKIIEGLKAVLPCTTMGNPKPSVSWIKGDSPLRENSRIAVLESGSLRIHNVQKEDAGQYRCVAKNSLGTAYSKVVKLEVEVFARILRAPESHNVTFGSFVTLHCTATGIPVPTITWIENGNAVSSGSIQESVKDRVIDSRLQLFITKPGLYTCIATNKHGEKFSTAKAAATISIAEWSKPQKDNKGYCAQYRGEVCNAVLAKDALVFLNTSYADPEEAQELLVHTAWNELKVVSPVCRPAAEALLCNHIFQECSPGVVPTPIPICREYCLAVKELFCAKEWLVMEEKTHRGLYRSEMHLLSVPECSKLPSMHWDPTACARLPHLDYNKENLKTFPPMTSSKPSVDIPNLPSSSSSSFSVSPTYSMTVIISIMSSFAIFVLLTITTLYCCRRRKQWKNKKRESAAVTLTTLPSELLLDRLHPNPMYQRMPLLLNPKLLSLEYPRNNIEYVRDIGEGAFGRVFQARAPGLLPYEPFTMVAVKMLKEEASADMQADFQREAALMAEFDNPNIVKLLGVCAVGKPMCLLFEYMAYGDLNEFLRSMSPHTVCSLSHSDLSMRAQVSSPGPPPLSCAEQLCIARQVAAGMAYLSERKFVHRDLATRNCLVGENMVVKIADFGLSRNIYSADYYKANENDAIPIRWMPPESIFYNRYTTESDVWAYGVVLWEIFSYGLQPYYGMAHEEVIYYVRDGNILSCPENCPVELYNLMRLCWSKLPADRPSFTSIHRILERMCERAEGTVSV
The following applies: MUSK, [ATP] 15 µM, compound 10 uM; for remaining activity at 10 µM: read-out: % Enzyme Activity (relative to DMSO controls).

Experiment [7] has as its target T7, 382 unique human kinases (Homo sapiens, UniProt Q9UK32).
T7 construct: purchased Reaction Biology (HotSpot contract assay)
Conditions: RSK4, [ATP] 30 µM, compound 10 uM; for remaining activity at 10 µM: read-out: % Enzyme Activity (relative to DMSO controls).

For experiment [8], the target named is T8, 382 unique human kinases (Homo sapiens, UniProt Q9UM73, G1202R).
T8 construct: purchased Reaction Biology (HotSpot contract assay)
The following applies: ALK (G1202R), [ATP] 20 µM, compound 10 uM; for remaining activity at 10 µM: read-out: % Enzyme Activity (relative to DMSO controls).

Experiment [9] addresses T9, 382 unique human kinases (Homo sapiens, UniProt Q6PHR2).
T9 construct: purchased Reaction Biology (HotSpot contract assay)
T9 sequence (Q6PHR2 1-472): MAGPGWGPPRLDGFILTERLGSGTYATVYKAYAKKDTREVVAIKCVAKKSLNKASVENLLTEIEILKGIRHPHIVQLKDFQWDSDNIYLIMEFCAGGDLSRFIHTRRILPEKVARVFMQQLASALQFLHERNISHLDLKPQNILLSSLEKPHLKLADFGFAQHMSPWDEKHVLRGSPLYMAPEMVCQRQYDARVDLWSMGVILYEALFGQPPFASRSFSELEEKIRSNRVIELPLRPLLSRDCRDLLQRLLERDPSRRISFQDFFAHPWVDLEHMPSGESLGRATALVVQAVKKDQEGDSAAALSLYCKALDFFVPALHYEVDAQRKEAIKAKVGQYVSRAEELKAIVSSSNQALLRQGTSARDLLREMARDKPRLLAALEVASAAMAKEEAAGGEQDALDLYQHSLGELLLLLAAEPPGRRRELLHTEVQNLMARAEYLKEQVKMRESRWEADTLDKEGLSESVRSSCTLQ
Conditions: ULK3, 10 uM; for remaining activity at 10 µM: read-out: % Enzyme Activity (relative to DMSO controls).

T2 sequence (Q13555 whole entry): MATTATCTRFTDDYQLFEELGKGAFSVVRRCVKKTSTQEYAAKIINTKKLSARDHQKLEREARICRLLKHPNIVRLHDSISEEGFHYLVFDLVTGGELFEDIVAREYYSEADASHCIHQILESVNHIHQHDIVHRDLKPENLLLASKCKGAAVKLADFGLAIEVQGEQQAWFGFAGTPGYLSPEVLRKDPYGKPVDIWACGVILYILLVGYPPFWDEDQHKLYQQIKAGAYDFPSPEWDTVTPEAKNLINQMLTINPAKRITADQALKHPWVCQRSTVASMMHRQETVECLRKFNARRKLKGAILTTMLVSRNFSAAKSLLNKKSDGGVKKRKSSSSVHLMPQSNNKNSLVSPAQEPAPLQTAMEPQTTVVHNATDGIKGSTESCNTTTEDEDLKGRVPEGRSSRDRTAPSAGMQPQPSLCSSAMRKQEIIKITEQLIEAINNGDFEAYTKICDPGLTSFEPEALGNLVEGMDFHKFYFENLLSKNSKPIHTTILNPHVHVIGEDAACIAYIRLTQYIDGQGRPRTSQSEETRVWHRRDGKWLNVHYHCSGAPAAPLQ
T5 sequence (P04629 33-796): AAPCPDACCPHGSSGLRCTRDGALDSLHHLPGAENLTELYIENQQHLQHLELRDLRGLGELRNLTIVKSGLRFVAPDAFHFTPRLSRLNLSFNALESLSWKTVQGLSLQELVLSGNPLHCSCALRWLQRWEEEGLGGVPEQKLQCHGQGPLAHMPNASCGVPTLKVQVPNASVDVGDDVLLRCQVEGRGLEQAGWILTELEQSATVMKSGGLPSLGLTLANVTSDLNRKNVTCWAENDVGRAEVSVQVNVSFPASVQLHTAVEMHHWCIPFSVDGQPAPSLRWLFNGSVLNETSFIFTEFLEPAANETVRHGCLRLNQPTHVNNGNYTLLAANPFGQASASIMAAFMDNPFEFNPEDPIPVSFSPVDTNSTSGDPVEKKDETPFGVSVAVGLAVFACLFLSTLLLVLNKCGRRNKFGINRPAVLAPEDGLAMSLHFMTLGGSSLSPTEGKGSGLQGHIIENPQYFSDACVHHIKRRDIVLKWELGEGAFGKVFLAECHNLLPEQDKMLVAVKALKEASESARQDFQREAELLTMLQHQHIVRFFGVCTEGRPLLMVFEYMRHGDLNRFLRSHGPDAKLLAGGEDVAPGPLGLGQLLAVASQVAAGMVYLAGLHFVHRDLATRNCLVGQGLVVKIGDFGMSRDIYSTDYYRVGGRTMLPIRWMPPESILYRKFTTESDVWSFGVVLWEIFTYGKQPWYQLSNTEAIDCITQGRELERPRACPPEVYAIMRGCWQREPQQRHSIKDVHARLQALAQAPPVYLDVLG
T3 sequence (P16234 24-1089 T674I): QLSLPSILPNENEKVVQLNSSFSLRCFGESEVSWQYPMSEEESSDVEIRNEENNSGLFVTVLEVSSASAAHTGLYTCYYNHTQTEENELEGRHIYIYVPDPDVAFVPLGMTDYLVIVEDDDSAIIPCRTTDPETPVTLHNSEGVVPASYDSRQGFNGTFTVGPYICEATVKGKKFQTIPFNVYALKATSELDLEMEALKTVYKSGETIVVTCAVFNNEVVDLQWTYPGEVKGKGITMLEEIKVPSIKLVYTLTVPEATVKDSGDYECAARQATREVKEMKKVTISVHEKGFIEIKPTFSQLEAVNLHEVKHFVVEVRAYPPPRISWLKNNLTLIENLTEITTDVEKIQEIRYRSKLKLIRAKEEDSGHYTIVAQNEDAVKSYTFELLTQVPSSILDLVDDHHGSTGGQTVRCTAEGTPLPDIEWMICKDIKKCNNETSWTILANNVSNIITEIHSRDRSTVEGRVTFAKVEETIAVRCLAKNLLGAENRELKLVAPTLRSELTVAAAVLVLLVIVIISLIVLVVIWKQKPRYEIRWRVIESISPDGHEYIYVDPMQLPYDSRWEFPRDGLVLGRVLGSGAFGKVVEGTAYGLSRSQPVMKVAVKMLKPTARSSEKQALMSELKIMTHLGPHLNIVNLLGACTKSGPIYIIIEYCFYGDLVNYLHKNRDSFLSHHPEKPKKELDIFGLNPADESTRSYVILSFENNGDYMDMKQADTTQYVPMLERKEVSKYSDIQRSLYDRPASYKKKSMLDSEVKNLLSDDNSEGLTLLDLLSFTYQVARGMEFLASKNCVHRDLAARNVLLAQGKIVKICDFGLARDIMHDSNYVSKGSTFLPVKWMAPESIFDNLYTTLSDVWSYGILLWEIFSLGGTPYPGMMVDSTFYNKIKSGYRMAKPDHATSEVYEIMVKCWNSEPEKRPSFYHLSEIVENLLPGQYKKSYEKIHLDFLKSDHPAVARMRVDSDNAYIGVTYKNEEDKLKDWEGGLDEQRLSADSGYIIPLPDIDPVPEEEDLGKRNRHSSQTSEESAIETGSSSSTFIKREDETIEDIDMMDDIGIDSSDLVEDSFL
T7 sequence (Q9UK32 whole entry): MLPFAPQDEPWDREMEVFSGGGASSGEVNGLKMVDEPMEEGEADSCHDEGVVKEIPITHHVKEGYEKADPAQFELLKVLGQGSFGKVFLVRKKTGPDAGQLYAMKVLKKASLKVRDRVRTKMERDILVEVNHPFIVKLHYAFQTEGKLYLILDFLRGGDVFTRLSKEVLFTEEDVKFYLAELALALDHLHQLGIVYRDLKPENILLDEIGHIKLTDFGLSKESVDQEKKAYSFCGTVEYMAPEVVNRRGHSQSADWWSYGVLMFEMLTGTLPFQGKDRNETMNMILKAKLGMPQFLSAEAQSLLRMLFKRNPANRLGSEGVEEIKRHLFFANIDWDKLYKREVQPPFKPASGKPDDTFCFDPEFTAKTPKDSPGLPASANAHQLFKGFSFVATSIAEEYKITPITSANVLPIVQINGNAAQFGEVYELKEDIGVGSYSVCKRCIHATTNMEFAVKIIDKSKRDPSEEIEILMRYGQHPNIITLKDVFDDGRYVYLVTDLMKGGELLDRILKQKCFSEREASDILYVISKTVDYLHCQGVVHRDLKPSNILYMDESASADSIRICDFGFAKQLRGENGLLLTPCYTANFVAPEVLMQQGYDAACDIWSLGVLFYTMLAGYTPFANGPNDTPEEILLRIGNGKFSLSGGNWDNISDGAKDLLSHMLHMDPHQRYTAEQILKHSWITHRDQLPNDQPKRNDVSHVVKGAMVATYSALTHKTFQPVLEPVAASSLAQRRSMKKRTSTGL
T8 sequence (Q9UM73 19-1620 G1202R): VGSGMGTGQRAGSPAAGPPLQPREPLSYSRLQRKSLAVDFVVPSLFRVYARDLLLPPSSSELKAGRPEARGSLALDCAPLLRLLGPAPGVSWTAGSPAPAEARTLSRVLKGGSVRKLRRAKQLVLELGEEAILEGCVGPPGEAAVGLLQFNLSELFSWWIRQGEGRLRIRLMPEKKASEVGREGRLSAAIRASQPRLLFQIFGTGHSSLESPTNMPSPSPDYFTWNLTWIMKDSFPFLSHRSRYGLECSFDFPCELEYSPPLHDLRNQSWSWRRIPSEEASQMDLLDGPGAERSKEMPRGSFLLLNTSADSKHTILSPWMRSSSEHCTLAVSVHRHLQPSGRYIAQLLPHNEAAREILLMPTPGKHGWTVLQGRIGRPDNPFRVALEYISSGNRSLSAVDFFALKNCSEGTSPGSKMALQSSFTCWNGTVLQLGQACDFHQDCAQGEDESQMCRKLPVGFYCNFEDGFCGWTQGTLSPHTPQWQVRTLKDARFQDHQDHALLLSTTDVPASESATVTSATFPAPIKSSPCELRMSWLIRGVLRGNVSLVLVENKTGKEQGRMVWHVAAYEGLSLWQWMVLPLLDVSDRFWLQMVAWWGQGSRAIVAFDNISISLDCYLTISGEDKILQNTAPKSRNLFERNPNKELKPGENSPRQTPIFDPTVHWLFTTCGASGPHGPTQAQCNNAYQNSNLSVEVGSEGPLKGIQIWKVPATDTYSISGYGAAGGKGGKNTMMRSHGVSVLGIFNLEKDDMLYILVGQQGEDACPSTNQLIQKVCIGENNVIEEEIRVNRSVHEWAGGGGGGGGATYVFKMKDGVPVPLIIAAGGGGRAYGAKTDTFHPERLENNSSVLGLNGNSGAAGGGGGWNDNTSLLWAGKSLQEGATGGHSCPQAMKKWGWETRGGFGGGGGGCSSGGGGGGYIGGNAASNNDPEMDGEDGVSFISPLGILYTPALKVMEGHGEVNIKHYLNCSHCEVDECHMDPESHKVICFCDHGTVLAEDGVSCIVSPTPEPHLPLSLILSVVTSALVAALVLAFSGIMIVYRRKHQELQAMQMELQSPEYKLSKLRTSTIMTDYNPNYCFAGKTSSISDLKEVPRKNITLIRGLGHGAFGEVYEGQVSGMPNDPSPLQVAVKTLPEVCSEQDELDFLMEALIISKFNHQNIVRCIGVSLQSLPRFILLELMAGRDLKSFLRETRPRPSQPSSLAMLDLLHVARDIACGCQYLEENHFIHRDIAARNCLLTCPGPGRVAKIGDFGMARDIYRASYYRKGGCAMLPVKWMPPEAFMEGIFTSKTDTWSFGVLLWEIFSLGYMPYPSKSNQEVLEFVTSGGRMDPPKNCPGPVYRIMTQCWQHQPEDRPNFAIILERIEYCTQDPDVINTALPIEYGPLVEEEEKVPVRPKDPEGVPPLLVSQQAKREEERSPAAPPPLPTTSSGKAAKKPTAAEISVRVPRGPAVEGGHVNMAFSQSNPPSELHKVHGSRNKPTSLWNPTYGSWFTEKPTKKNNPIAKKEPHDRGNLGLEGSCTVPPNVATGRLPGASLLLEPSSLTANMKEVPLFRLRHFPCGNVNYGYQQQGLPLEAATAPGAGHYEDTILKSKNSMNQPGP

As to `CC(C)c1cc(-c2n[nH]c(=O)n2-c2ccc3c(ccn3C)c2)c(O)cc1O` [Ganetespib (STA9090)], in experiment [1], the remaining activity at 10 µM was found to be 80%.

For `CC(C)c1cc(-c2n[nH]c(=O)n2-c2ccc3c(ccn3C)c2)c(O)cc1O` [Ganetespib], the remaining activity at 10 µM came out at 98.8% in experiment [2]; 33.8% in [3]; 62.6% in experiment [4]; 52.8% in experiment [5]; 51.1% in experiment [6]; 27.5% in experiment [7]. The results for the remaining activity at 10 µM in [8] and in experiment [9] were 52.8% and 100%, respectively.

As for `CCNC(=O)c1noc(-c2cc(C(C)C)c(O)cc2O)c1-c1ccc(CN2CCOCC2)cc1` [Luminespib (AUY-922)], in experiment [1], the “% Enzyme Activity (relative to DMSO controls)” value is 80.99% and the remaining activity at 10 µM amounted to 83.5%.

For `CCNC(=O)c1noc(-c2cc(C(C)C)c(O)cc2O)c1-c1ccc(CN2CCOCC2)cc1` [Luminespib], the “% Enzyme Activity (relative to DMSO controls)” value in experiment [2] is given as 105.88%; in experiment [3], 89.59%; in experiment [4] it was 101.11%; in experiment [5], 101.35%; in experiment [6], 89.25%; in experiment [7] it was 94.35%. Further, the figures for the “% Enzyme Activity (relative to DMSO controls)” value in experiment [8] and in experiment [9] were 100.40% and 91.59%, respectively. In addition, the remaining activity at 10 µM in [2] came out at 106%; in experiment [3] it was 91.6%; in [4], 102%; in experiment [5] it was 101%; in [6] it was 90.6%; in [7], 96%. Besides, the remaining activity at 10 µM in experiment [8] stood at 104%; in experiment [9], 94.8%.
